Biological target: T1, affinity-purified CDK12 kinase complex (Homo sapiens, UniProt Q9NYV4)
T1 construct: made in house
Test: In vitro kinase assay: CDK12 phosphorylation of RNAPII GST-CTD
Type: biochemical
Conditions: human GST-CTD (52 repeat), increasing levels of recombinant CRIF1, immunoblot, dose-dependent
Source text: (A) CRIF1 and CDK12 have opposite effects on global RNAPII CTD-Ser2P levels in vivo. U2OS cells were transfected with indicated siRNAs for 48 hr, and RNAPII phosphorylation was monitored by immunoblot using phospho-specific CTD (Ser2P and Ser5P) antibodies. (B) Knockdown of CRIF1 up-regulates CHK1 expression and induction of p53. […] (C) Analysis of steady-state mRNA levels by qRT-PCR in extracts from U2OS cells exposed to control (CTL) or CRIF1-specific siRNAs, as indicated. (D) Depletion of CRIF1 enhances 4E-BP1 phosphorylation at S65 and T70 in vivo, as assessed by immunoblot using phospho-specific antibodies. (E) CRIF1 inhibits RNAPII CTD-Ser2 phosphorylation by CDK12 complexes in vitro. The human GST-CTD (52 repeat) protein was incubated in vitro with the affinity-purified HA-CDK12 kinase complex in the absence or presence of increasing levels of purified recombinant CRIF1, and analyzed by immunoblot with the indicated antisera. […] Analysis of GST-CTD Ser2 phosphorylation was carried out as described in (E), using the affinity-purified FLAG-CDK9 kinase. (G) CRIF1 inhibits 4E-BP1 phosphorylation by CDK12 in vitro. […] was monitored by immunoblot in the absence or in the presence of different levels of affinity-purified recombinant CRIF1. […]

T1 sequence (Q9NYV4 whole entry): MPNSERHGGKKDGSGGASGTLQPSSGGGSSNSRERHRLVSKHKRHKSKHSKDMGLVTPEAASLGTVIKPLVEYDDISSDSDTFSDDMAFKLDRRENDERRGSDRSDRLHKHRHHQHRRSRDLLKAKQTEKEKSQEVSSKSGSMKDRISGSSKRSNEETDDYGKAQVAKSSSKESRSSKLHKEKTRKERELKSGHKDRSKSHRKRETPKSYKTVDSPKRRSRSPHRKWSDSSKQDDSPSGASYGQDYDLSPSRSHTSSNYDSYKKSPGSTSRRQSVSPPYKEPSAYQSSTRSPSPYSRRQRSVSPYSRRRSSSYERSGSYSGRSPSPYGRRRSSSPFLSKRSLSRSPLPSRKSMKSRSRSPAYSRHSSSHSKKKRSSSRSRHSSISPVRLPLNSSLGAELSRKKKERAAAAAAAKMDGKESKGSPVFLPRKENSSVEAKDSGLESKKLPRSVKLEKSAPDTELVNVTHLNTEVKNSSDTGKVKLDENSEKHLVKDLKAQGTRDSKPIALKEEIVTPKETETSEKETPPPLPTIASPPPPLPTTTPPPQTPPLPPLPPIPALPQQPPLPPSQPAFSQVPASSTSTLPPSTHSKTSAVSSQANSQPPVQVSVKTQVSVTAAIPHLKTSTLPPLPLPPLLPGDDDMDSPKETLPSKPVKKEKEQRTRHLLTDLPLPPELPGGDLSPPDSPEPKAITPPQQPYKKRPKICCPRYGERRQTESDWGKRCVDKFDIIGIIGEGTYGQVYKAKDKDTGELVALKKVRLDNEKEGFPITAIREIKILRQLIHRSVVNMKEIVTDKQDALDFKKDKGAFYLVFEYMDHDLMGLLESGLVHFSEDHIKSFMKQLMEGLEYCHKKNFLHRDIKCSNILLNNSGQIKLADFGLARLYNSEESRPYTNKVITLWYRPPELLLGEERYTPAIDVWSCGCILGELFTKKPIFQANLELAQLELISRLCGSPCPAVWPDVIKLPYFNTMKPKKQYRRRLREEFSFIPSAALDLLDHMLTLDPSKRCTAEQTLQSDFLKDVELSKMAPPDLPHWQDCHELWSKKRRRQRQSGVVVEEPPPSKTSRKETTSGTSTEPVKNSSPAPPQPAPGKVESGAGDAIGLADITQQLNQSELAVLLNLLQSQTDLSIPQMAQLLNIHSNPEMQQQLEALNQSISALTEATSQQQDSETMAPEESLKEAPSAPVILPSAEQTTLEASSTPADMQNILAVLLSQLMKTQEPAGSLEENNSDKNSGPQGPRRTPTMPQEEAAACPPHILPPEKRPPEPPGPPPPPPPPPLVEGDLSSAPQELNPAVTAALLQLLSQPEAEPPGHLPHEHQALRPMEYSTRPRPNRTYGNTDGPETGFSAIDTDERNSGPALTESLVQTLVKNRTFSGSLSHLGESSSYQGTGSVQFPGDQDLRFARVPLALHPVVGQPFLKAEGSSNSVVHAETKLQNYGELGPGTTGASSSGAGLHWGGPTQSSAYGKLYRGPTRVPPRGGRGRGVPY
T1 sequence (O75909 whole entry partner): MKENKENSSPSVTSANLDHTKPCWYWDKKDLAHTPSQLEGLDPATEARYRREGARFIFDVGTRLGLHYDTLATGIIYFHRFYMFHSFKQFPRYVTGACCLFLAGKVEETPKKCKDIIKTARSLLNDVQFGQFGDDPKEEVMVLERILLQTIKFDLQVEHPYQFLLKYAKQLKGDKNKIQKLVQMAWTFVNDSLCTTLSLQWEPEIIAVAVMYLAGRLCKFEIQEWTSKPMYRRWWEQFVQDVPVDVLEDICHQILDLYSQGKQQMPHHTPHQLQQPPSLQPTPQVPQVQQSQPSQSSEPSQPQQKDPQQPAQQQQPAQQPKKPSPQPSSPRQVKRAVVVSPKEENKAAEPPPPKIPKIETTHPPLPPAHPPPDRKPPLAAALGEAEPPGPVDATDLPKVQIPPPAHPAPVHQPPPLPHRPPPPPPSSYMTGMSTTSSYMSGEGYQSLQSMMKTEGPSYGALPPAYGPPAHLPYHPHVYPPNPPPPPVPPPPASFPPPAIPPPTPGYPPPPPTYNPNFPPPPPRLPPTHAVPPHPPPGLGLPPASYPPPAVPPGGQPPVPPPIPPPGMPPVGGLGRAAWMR

CDK12-mediated phosphorylation of the human GST-CTD substrate (RNAPII CTD-Ser2): inhibits
CDK12-mediated phosphorylation of the human GST-CTD substrate (RNAPII CTD-Ser2) (listed as recombinant CRIF1): potently inhibited
Substance: Growth Arrest and DNA Damage-Inducible Proteins-Interacting Protein 1 [CRIF1]
